“And” between values parts separate entries of the source, which are not always exact repeats. Identical values can stand only once.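 Cells were grown in 96-well plates and exposed to each compound for 48 hours at five concentrations; endpoints were interpolated linearly between bracketing concentrations, or set to the highest concentration if not reached. Here, GI50 denotes the concentration required for 50% inhibition of growth. The concentration for full growth arrest is given as TGI.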
Legend:
Assay in all cases: NCI-60 cell line screen, 48 h
CCRF-CEM leukemia = system: CCRF-CEM leukemia
COLO 205 colon = system: COLO 205 colon
HOP-92 NSCLC = system: HOP-92 NSCLC
MDA-MB-435 = system: MDA-MB-435
NCI-H522 lung = system: NCI-H522 lung
SF-295 CNS = system: SF-295 CNS
SK-MEL-2 melanoma = system: SK-MEL-2 melanoma
SK-MEL-28 melanoma = system: SK-MEL-28 melanoma
SNB-75 CNS = system: SNB-75 CNS
U251 CNS = system: U251 CNS

Structure (SMILES): COc1ccc(N2NC(c3ccccc3)(c3ccccc3)C(C)C2=O)cc1 (stereo not given)
- TGI (CCRF-CEM leukemia): > 100 µM
- TGI (COLO 205 colon): 34 µM
- TGI (HOP-92 NSCLC): > 100 µM
- TGI (MDA-MB-435): > 100 µM
- TGI (NCI-H522 lung): > 100 µM
- TGI (SF-295 CNS): > 100 µM
- TGI (SK-MEL-2 melanoma): > 100 µM
- TGI (SK-MEL-28 melanoma): > 100 µM
- TGI (SNB-75 CNS): > 100 µM
- TGI (U251 CNS): > 100 µM

Structure (SMILES): O=c1c2ccccc2nc(N/N=C/c2ccccc2O)n1-c1ccccc1
- TGI (CCRF-CEM leukemia): > 100 µM
- TGI (COLO 205 colon): > 100 µM
- TGI (HOP-92 NSCLC): 81.3 µM
- TGI (MDA-MB-435): > 100 µM
- TGI (NCI-H522 lung): 74.7 µM
- TGI (SF-295 CNS): > 100 µM
- TGI (SK-MEL-2 melanoma): > 100 µM
- TGI (SK-MEL-28 melanoma): > 100 µM
- TGI (SNB-75 CNS): > 100 µM
- TGI (U251 CNS): > 100 µM

Structure (SMILES): O=C1C(=Cc2ccc(Cl)c(Cl)c2)C([O-])=C([P+](c2ccccc2)(c2ccccc2)c2ccccc2)C([O-])=C1[P+](c1ccccc1)(c1ccccc1)c1ccccc1
- TGI (CCRF-CEM leukemia): 5.6 µM
- TGI (COLO 205 colon): 3.28 µM
- TGI (HOP-92 NSCLC): 4.86 µM
- TGI (MDA-MB-435): 5.59 µM
- TGI (NCI-H522 lung): 4.1 µM
- TGI (SF-295 CNS): 6.74 µM
- TGI (SK-MEL-2 melanoma): 6.91 µM
- TGI (SK-MEL-28 melanoma): 6.07 µM
- TGI (SNB-75 CNS): 15.9 µM
- TGI (U251 CNS): 6.29 µM

Structure (SMILES): CCCCCCCCCCCCCC(=O)N(CCCCCCCCC)CC(O)C(O)C(OC1OC(CO)C(O)C(O)C1O)C(O)CO (stereo not given)
- TGI (CCRF-CEM leukemia): 45.4 µM
- TGI (COLO 205 colon): 37.3 µM
- TGI (HOP-92 NSCLC): 34 µM
- TGI (MDA-MB-435): 34.6 µM
- TGI (NCI-H522 lung): 44.4 µM
- TGI (SF-295 CNS): 41.2 µM
- TGI (SK-MEL-2 melanoma): 59 µM
- TGI (SK-MEL-28 melanoma): 33.6 µM
- TGI (SNB-75 CNS): 37.3 µM
- TGI (U251 CNS): 38.6 µM

Structure (SMILES): CCOC(=O)[C@@H]1ON2OC(OC3CCCC3(c3ccccc3)c3ccccc3)C(OC(C)=O)[C@H]3OC(=O)[C@@H]1C32 (stereo not given in full)
- TGI (CCRF-CEM leukemia): > 100 µM
- TGI (COLO 205 colon): > 100 µM
- TGI (HOP-92 NSCLC): > 100 µM
- TGI (MDA-MB-435): > 100 µM
- TGI (NCI-H522 lung): 72.2 µM
- TGI (SF-295 CNS): > 100 µM
- TGI (SK-MEL-2 melanoma): > 100 µM
- TGI (SK-MEL-28 melanoma): > 100 µM
- TGI (SNB-75 CNS): > 100 µM
- TGI (U251 CNS): > 100 µM

Structure (SMILES): COc1ccc(C(=O)/C=C/c2cc(O)c(O)cc2F)c(OC)c1
- TGI (CCRF-CEM leukemia): 15.2 µM
- TGI (COLO 205 colon): 29.8 µM
- TGI (HOP-92 NSCLC): > 100 µM
- TGI (MDA-MB-435): > 100 µM
- TGI (NCI-H522 lung): 3.19 µM
- TGI (SF-295 CNS): 23.5 µM
- TGI (SK-MEL-2 melanoma): 18.3 µM
- TGI (SK-MEL-28 melanoma): 31.1 µM
- TGI (SNB-75 CNS): 20.7 µM
- TGI (U251 CNS): 20.9 µM

Structure (SMILES): CN1CCN(C2=CC(=O)c3c(O)ccc(O)c3C2=O)CC1
- TGI (CCRF-CEM leukemia): 3.03 µM
- TGI (COLO 205 colon): 0.31 µM
- TGI (HOP-92 NSCLC): 3.29 µM
- TGI (MDA-MB-435): 0.332 µM
- TGI (NCI-H522 lung): 3.17 µM
- TGI (SF-295 CNS): 3.09 µM
- TGI (SK-MEL-2 melanoma): 4.08 µM
- TGI (SK-MEL-28 melanoma): 3 µM
- TGI (SNB-75 CNS): 2.97 µM
- TGI (U251 CNS): 2.97 µM

Structure (SMILES): [N-]=[N+]=Nc1c([N+](=O)[O-])c(=O)n2c3c(cccc13)CCC2
- TGI (CCRF-CEM leukemia): 4.98 µM
- TGI (COLO 205 colon): 20.9 µM
- TGI (HOP-92 NSCLC): 30 µM
- TGI (MDA-MB-435): 31.2 µM
- TGI (NCI-H522 lung): 4.58 µM
- TGI (SF-295 CNS): > 100 µM
- TGI (SK-MEL-2 melanoma): 31.2 µM
- TGI (SK-MEL-28 melanoma): 16.3 µM
- TGI (SNB-75 CNS): 38.1 µM
- TGI (U251 CNS): 34.7 µM

Structure (SMILES): O=[N+]([O-])C(Cl)=C/C(=C(\Cl)SCc1ccccc1)[N+](=O)[O-]
- TGI (CCRF-CEM leukemia): 18 µM
- TGI (COLO 205 colon): 32.3 µM
- TGI (HOP-92 NSCLC): 36.1 µM
- TGI (MDA-MB-435): 36.3 µM
- TGI (NCI-H522 lung): 46.2 µM
- TGI (SF-295 CNS): 99.6 µM
- TGI (SK-MEL-2 melanoma): 76.5 µM
- TGI (SK-MEL-28 melanoma): 59.7 µM
- TGI (SNB-75 CNS): > 100 µM
- TGI (U251 CNS): 34.9 µM

Structure (SMILES): C=C(C(=O)O[C@H]1C(=O)C2=C(C)CCC3C(=C)C(=O)O[C@@H]3C2[C@]1(C)O)C1CC[C@]2(C)CCCC(=C)[C@H]2C1 (stereo not given in full)
- TGI (CCRF-CEM leukemia): 0.106 µM
- GI50 (COLO 205 colon): 13.7 µM
- TGI (COLO 205 colon): 23 µM and 34.8 µM
- GI50 (HOP-92 NSCLC): 7.27 µM
- TGI (HOP-92 NSCLC): 14.2 µM and 11.3 µM
- TGI (MDA-MB-435): 10.1 µM and 8.5 µM
- TGI (NCI-H522 lung): 8.55 µM
- GI50 (SF-295 CNS): 0.0252 µM
- TGI (SF-295 CNS): 9.37 µM and 29.5 µM
- TGI (SK-MEL-2 melanoma): 20.3 µM and 23.5 µM
- TGI (SK-MEL-28 melanoma): 12.5 µM
- GI50 (SNB-75 CNS): 2.42 µM
- TGI (SNB-75 CNS): 8.05 µM and 6.71 µM
- GI50 (U251 CNS): 0.117 µM
- TGI (U251 CNS): 7.04 µM and 9.95 µM

Structure (SMILES): CC(=O)OC1COC(Nc2nc(N)n(C)c(=O)c2N=O)C(OC(C)=O)C1OC(C)=O (stereo not given)
- TGI (CCRF-CEM leukemia): > 10 µM
- TGI (COLO 205 colon): > 10 µM
- TGI (HOP-92 NSCLC): > 10 µM
- TGI (MDA-MB-435): > 10 µM
- TGI (NCI-H522 lung): > 10 µM
- TGI (SF-295 CNS): > 10 µM
- TGI (SK-MEL-2 melanoma): > 10 µM
- TGI (SK-MEL-28 melanoma): > 10 µM
- TGI (SNB-75 CNS): > 10 µM
- TGI (U251 CNS): > 10 µM

Structure (SMILES): O=c1[nH]c(=S)c2cc3c(=S)[nH]c(=O)n(CCO)c3nc2n1CCO
- TGI (CCRF-CEM leukemia): > 100 µM
- TGI (COLO 205 colon): > 100 µM
- TGI (HOP-92 NSCLC): > 100 µM
- TGI (MDA-MB-435): > 100 µM
- TGI (NCI-H522 lung): > 100 µM
- TGI (SF-295 CNS): > 100 µM
- TGI (SK-MEL-2 melanoma): > 100 µM
- TGI (SK-MEL-28 melanoma): > 100 µM
- TGI (SNB-75 CNS): > 100 µM
- TGI (U251 CNS): > 100 µM

Structure (SMILES): COc1cc(Br)c(CC2C3=C(CCN2C(=O)C2CCC2)CC(=O)CC3)cc1O (stereo not given)
- TGI (CCRF-CEM leukemia): 87.6 µM
- TGI (COLO 205 colon): 40 µM
- TGI (HOP-92 NSCLC): 53.6 µM
- TGI (MDA-MB-435): 35.7 µM
- TGI (NCI-H522 lung): 34.3 µM
- TGI (SF-295 CNS): > 100 µM
- TGI (SK-MEL-2 melanoma): > 100 µM
- TGI (SK-MEL-28 melanoma): > 100 µM
- TGI (SNB-75 CNS): 71.1 µM
- TGI (U251 CNS): > 100 µM

Structure (SMILES): CC(=O)/C(=C/N1CCNC1=S)C(=O)Nc1ccccc1C
- TGI (CCRF-CEM leukemia): > 100 µM
- TGI (COLO 205 colon): > 100 µM
- TGI (HOP-92 NSCLC): > 100 µM
- TGI (MDA-MB-435): > 100 µM
- TGI (NCI-H522 lung): > 100 µM
- TGI (SF-295 CNS): > 100 µM
- TGI (SK-MEL-2 melanoma): > 100 µM
- TGI (SK-MEL-28 melanoma): > 100 µM
- TGI (SNB-75 CNS): > 100 µM
- TGI (U251 CNS): > 100 µM

Structure (SMILES): C[C@H]1COC2=C1C(=O)C(=O)c1c2ccc2c1CCCC2(C)C
- TGI (CCRF-CEM leukemia): > 39.5 µM
- TGI (COLO 205 colon): 4.19 µM
- TGI (HOP-92 NSCLC): > 100 µM
- TGI (MDA-MB-435): 2.74 µM
- TGI (NCI-H522 lung): 12.3 µM
- TGI (SF-295 CNS): 3.73 µM
- TGI (SK-MEL-2 melanoma): 15.3 µM
- TGI (SK-MEL-28 melanoma): 20.6 µM
- TGI (SNB-75 CNS): 3.81 µM
- TGI (U251 CNS): 27.4 µM

Structure (SMILES): CC1(C)CCc2c(c(N=Nc3ccc(F)cc3)c3ccccc3c2O)O1
- TGI (CCRF-CEM leukemia): 41 µM
- TGI (COLO 205 colon): > 100 µM
- TGI (HOP-92 NSCLC): > 100 µM
- TGI (MDA-MB-435): 32 µM
- TGI (NCI-H522 lung): > 100 µM
- TGI (SF-295 CNS): 49.8 µM
- TGI (SK-MEL-2 melanoma): 93 µM
- TGI (SK-MEL-28 melanoma): > 100 µM
- TGI (SNB-75 CNS): 48.6 µM
- TGI (U251 CNS): > 100 µM
